{
  "source": "the NIST ThermoML archive (doi:10.1016/j.tca.2018.05.015)",
  "conditions": "for mass density: 101.33 kPa, X-ray diffraction; for Triple point temperature: DSC",
  "note": "± gives the expanded uncertainty stated by the source.",
  "data": [
    {"compound": "CC(C)(C#N)N=NC(C)(C)C#N", "note": "[2,2'-dimethyl-2,2'-azodipropionitrile]", "values": [
      {"measurement": "mass density", "setting": "346.15 K, Crystal 2", "result": "1100 ± 22", "unit": "kg/m3"},
      {"measurement": "mass density", "setting": "356.15 K, Crystal 1", "result": "1096 ± 22", "unit": "kg/m3"},
      {"measurement": "Triple point temperature", "setting": "Crystal 1", "result": "373.15 ± 5", "unit": "K"},
      {"measurement": "Triple point temperature", "setting": "Crystal 2", "result": "351.15 ± 5", "unit": "K"}
    ]}
  ]
}
